From ChEMBL document CHEMBL1150785 (Antimicrob Agents Chemother, 2007) come the findings set out here.

≈ marks a conversion by molar mass, not a printed value.

What all share (assay type): functional
Assay [1] has as its system Mycobacterium tuberculosis. The assay is described as follows: Antimicrobial activity against Mycobacterium tuberculosis H37Ra.
Assay [2] deals with Mycobacterium tuberculosis. Put plainly: Antimicrobial activity against Mycobacterium tuberculosis in mouse assessed as microbial kill activity.
Assay [3] concerns Mycobacterium tuberculosis. The assay is described as follows: Antimicrobial activity against Mycobacterium tuberculosis H37Ra assessed as microbial kill activity.
The test system of assay [4] is Mycobacterium tuberculosis. Put plainly: Antimicrobial activity against Mycobacterium tuberculosis H37Ra assessed as early bactericidal activity.

Compound `NNC(=O)c1ccncc1` [ISONIAZID] gave an MIC in assay [1] of 0.0156 µg/mL (≈ 0.114 µM). Also, the log10cfu in assay [2] is given as 1.3. In addition, the log10CFU/ml in assay [3] amounted to 2.89. Also, the log10CFU/ml/day in assay [4] came out at 0.9.

The term MIC denotes the smallest concentration in the dilution series that meets the test's criterion for growth inhibition.
